Data: patent US5876694A, “Azavesamicols” (priority 1997, dated 1999)
Where two headings read alike, the source gives them in different places.

Assay: Tissue distribution of radiotracer in rats
Format: in vivo, male Wistar rats
Conditions: for tissue uptake at 5 min / tissue uptake at 0.5 h / tissue uptake at 1 h / tissue uptake at 3 h: rat
Description: Tissue Distribution Experiments
Four groups of male Wistar rats (n=4) weighing 200-350 g were used in these experiments. Each animal received, while under ether anesthesia, an intravenous injection of the radiotracer (3-5 uCi) dissolved in 0.1 mL of 50% aqueous ethanol. At 5, 30, 60 and 180 min post-injection, blood was collected from the anesthetized animal by cardiac puncture, and the animal was immediately sacrificed by cardiectomy. The organs and tissues of interest were harvested, transferred to preweighed tubes and counted in a Beckman gamma counter. The tubes were subsequently reweighed to give the weight of the corresponding tissues. Preweighed tubes containing 1 mL samples of a 1:100 dilution of the injected dose were also counted and used as reference for calculating the tissue accumulation of radioactivity. The accumulation of radiotracer was expressed as a percentage of injected dose per gram of tissue.
The animals were injected intravenously with 4.9 uCi of the radiotracer i
0.1 ml of 50% aq. EtOH.
The animals were injected with 3.7 uCi of the radiotracer in 0.1 ml of 50

O[C@@H]1CCN(Cc2cccc([125I])c2)C[C@H]1N1CCC(c2ccccc2)CC1 (single isomer, unassigned) [(-)-[^125 I]12h, (+)- and (-)-4-hydroxy-1-(3-[I^125]iodobenzyl)-3-(4-phenyl-piperidinyl)piperidine]
Ratio brain/blood (5 min, iv): 4.27 | Ratio heart/blood (5 min, iv): 6.07 | radioactivity in brain (5 min post-injection, iv): 1.67 % of the injected dose | Ratio brain/blood (30 min, iv): 9.06 | Ratio heart/blood (30 min, iv): 6.87 | Ratio brain/blood (60 min, iv): 8.51 | Ratio heart/blood (60 min, iv): 5.97 | Ratio brain/blood (180 min, iv): 9.87 | Ratio heart/blood (180 min, iv): 5.32 | brain accumulation and retention (in words) (compared with the (+)-isomer): higher accumulation and longer retention in the brain | tissue uptake at 5 min (blood, 5 min, iv, read-out: Tissue distribution, blood): 0.22 %ID/g | tissue uptake at 0.5 h (blood, 30 min, iv, read-out: Tissue distribution, blood): 0.11 %ID/g | tissue uptake at 1 h (blood, 60 min, iv, read-out: Tissue distribution, blood): 0.1 %ID/g | tissue uptake at 3 h (blood, 180 min, iv, read-out: Tissue distribution, blood): 0.1 %ID/g | tissue uptake at 5 min (brain, 5 min, iv, read-out: Tissue distribution, brain): 0.92 %ID/g | tissue uptake at 0.5 h (brain, 30 min, iv, read-out: Tissue distribution, brain): 0.99 %ID/g | tissue uptake at 1 h (brain, 60 min, iv, read-out: Tissue distribution, brain): 0.83 %ID/g | tissue uptake at 3 h (brain, 180 min, iv, read-out: Tissue distribution, brain): 0.92 %ID/g | tissue uptake at 5 min (gonads, 5 min, iv, read-out: Tissue distribution, gonads): 0.19 %ID/g | tissue uptake at 0.5 h (gonads, 30 min, iv, read-out: Tissue distribution, gonads): 0.23 %ID/g | tissue uptake at 1 h (gonads, 60 min, iv, read-out: Tissue distribution, gonads): 0.17 %ID/g | tissue uptake at 3 h (gonads, 180 min, iv, read-out: Tissue distribution, gonads): 0.2 %ID/g | tissue uptake at 5 min (heart, 5 min, iv, read-out: Tissue distribution, heart): 1.32 %ID/g | tissue uptake at 0.5 h (heart, 30 min, iv, read-out: Tissue distribution, heart): 0.75 %ID/g | tissue uptake at 1 h (heart, 60 min, iv, read-out: Tissue distribution, heart): 0.58 %ID/g | tissue uptake at 3 h (heart, 180 min, iv, read-out: Tissue distribution, heart): 0.5 %ID/g | tissue uptake at 5 min (kidney, 5 min, iv, read-out: Tissue distribution, kidney): 3.71 %ID/g | tissue uptake at 0.5 h (kidney, 30 min, iv, read-out: Tissue distribution, kidney): 3.53 %ID/g | tissue uptake at 1 h (kidney, 60 min, iv, read-out: Tissue distribution, kidney): 3.13 %ID/g | tissue uptake at 3 h (kidney, 180 min, iv, read-out: Tissue distribution, kidney): 3.27 %ID/g | tissue uptake at 5 min (liver, 5 min, iv, read-out: Tissue distribution, liver): 2.07 %ID/g | tissue uptake at 0.5 h (liver, 30 min, iv, read-out: Tissue distribution, liver): 2.35 %ID/g | tissue uptake at 1 h (liver, 60 min, iv, read-out: Tissue distribution, liver): 2.63 %ID/g | tissue uptake at 3 h (liver, 180 min, iv, read-out: Tissue distribution, liver): 2.23 %ID/g | tissue uptake at 5 min (lung, 5 min, iv, read-out: Tissue distribution, lung): 5.9 %ID/g | tissue uptake at 0.5 h (lung, 30 min, iv, read-out: Tissue distribution, lung): 3.21 %ID/g | tissue uptake at 1 h (lung, 60 min, iv, read-out: Tissue distribution, lung): 2.41 %ID/g | tissue uptake at 3 h (lung, 180 min, iv, read-out: Tissue distribution, lung): 2.01 %ID/g | tissue uptake at 5 min (muscle, 5 min, iv, read-out: Tissue distribution, muscle): 0.46 %ID/g | tissue uptake at 0.5 h (muscle, 30 min, iv, read-out: Tissue distribution, muscle): 0.3 %ID/g | tissue uptake at 1 h (muscle, 60 min, iv, read-out: Tissue distribution, muscle): 0.28 %ID/g | tissue uptake at 3 h (muscle, 180 min, iv, read-out: Tissue distribution, muscle): 0.27 %ID/g | tissue uptake at 5 min (spleen, 5 min, iv, read-out: Tissue distribution, spleen): 1.04 %ID/g | tissue uptake at 0.5 h (spleen, 30 min, iv, read-out: Tissue distribution, spleen): 1.24 %ID/g | tissue uptake at 1 h (spleen, 60 min, iv, read-out: Tissue distribution, spleen): 1.17 %ID/g | tissue uptake at 3 h (spleen, 180 min, iv, read-out: Tissue distribution, spleen): 1.28 %ID/g | tissue uptake at 5 min (thyroid, 5 min, iv, read-out: Tissue distribution, thyroid): 2.67 %ID/g | tissue uptake at 0.5 h (thyroid, 30 min, iv, read-out: Tissue distribution, thyroid): 3.15 %ID/g | tissue uptake at 1 h (thyroid, 60 min, iv, read-out: Tissue distribution, thyroid): 5.87 %ID/g | tissue uptake at 3 h (thyroid, 180 min, iv, read-out: Tissue distribution, thyroid): 11.6 %ID/g | brain level over time (in words) (throughout the study (5 to 180 min)): remained essentially unchanged
